This is an account of results in patent publication US20260115250A1, “METHODS OF TREATING AGE-RELATED MACULAR DEGENERATION” (Character Biosciences, Inc., priority 2022, published 2026).

The test system of data set [1] is ARPE-19 cells. The data set is described as follows: ARPE-19 cholesterol efflux. To be noted: ARPE-19, 20 μM peptide, 4 hours. It counts as cell-based, human. On the procedure: Fully confluent 96-well plates of ARPE-19 cells were treated for 1 hour in serum-free DMEM containing 10 mM methyl-β-cyclodextrin, 100 μM cholesterol, and 25 μM BODIPY cholesterol. Cells were then washed and incubated overnight in serum-free DMEM containing 1 μM GW3965, 2 μg/mL ACAT inhibitor, and 0.2% BSA (LXR Agonist treated), or serum free DMEM containing 2 μg/mL ACAT inhibitor, and 0.2% BSA (Control). Cells were washed and incubated with 20 μM peptides diluted in serum-free Fluorobrite DMEM for 4 hours at 37° C. Media was transferred to a new 96-well plate and fresh serum-free Fluorobrite DMEM was placed on the cells. Media and cellular fluorescence were read on a Promega GloMax at 475 nm excitation, 500-550 emission. Fluorescence values were background corrected from no treatment conditions and percent efflux was calculated by the following equation: % efflux=(Media Fluorescence values)/(Media+Cell Fluorescence values). Data are presented as mean+SD over two runs per peptide.

Data set [2] can be described thus: key assays (summary statement on homologous variants).
The test system of another data set is HMC3 cells. As to the kind of experiment: HMC3 cholesterol efflux. It counts as cell-based, human. To be noted: HMC3, 20 μM peptide, 4 hours. How it is done: FIGS. 27A-27B and FIG. 28 illustrate HMC3 cholesterol efflux. Fully confluent 96-well plates of HMC3 cells were treated for 1 hour in serum-free EMEM containing 10 mM methyl-β-cyclodextrin, 100 μM cholesterol, and 25 μM BODIPY cholesterol. Cells were then washed and incubated overnight in serum free EMEM containing 1 μM LXR agonist GW3965, 2 μg/mL ACAT inhibitor, and 0.2% BSA (LXR Agonist treated), or serum-free EMEM containing 2 μg/mL ACAT inhibitor, and 0.2% BSA (Control). Cells were washed and incubated with 20 μM peptides diluted in serum-free Fluorobrite DMEM for 4 hours at 37° C. Media was transferred to a new 96-well plate and fresh serum-free Fluorobrite DMEM was placed on the cells. Media and cellular fluorescence were read on a Promega GloMax at 475 nm excitation, 500-550 emission. Fluorescence values were background corrected from no treatment conditions and percent efflux was calculated by the following equation: % efflux=(Media Fluorescence values)/(Media+Cell Fluorescence values). Data are presented as mean+SD over two runs per peptide.
FIGS. 30A-30J show HMC3 cholesterol efflux titration curves for the indicated peptides. Fully confluent 96-well plates of HMC3 cells were treated for 1 hour in serum-free EMEM containing 10 mM methyl-β-cyclodextrin, 100 μM cholesterol, and 25 μM BODIPY cholesterol. Cells were then washed and incubated overnight in serum free EMEM containing 1 μM GW3965, 2 μg/mL ACAT inhibitor, and 0.2% BSA (LXR Agonist treated), or serum free EMEM containing 2 μg/mL ACAT inhibitor, and 0.2% BSA (Control). Cells were washed and incubated with 0-100 μM peptides serially diluted in serum-free Fluorobrite DMEM for 4 hours at 37° C. Media was transferred to a new 96-well plate and fresh serum-free Fluorobrite DMEM was placed on the cells. Media and cellular fluorescence were read on a Promega GloMax at 475 nm excitation, 500-550 emission. Fluorescence values were background corrected from no treatment conditions and percent efflux was calculated by the following equation: % efflux=(Media Fluorescence values)/(Media+Cell Fluorescence values). Data are presented as mean+SD over two runs per peptide.

For data set [3], the system named is ARPE-19 cells. As to the kind of experiment: ARPE-19 cell viability assay (Cell Titer Glo). It counts as cell-based, human. Conditions: 100 μM peptide, 1.5 hours. On the procedure:
ARPE-19 cells were seeded in 96-well plates at 25,000 cells/well and allowed to adhere to the plate surface for at least 24 hours. Peptides were diluted in serum-free DMEM: F12 to a final concentration of 100 μM. Cells were washed, then incubated in 100 μM peptide solution for 1.5 hours at 37° C. Plates were brought to room temperature for 30 minutes, then washed with DPBS. Cells were incubated in a 1:1 mixture of DPBS and Cell Titer Glo 2.0 Reagent for 10 minutes at room temperature, then cell luminescence was read on a plate reader. Viability values were background corrected, and 0% viability is determined by luminescence values of cells treated with 1% Triton-X-100. Data are presented as mean+SD over two separate runs.
A general note: Cellular ATP, detected with luciferase, serves as a proxy for viable cell number.

Another data set concerns the target LDLR (Homo sapiens, UniProt P01130). The data set is described as follows: LDLR binding (SPR), high surfactant preparation. On the procedure:
The table shown in FIG. 23 illustrates LDLR binding data (SPR), using a high surfactant preparation. Recombinant LDLR was diluted in 10 mM acetate buffer pH 4.5 and amine coupled to a CM5 chip at 1000 RU. Peptides were diluted to 5 μM in running buffer (HBS-P+, 1 mM CaCl2) and serially diluted 1:3 for 5 total concentrations. Peptides were exposed to immobilized LDLR at a rate of […] for 120 seconds. Between cycles, the chip surface was regenerated with 3 injections of 50 mM NaOH/100 mM EDTA. Multi-Cycle Kinetics was performed on a Biacore Insight Evaluation Software and binding kinetics were analyzed with a 1:1 binding model.

Where [4] appears, read: high surfactant preparation (HBS-P+), 1:1 binding model, read-out: binding KD to LDLR.

Read-outs that look alike come from different tables or passages of the source. Ends that are not written are not given here. Peptide text beside a SMILES is read from it. Bounds are passed on as bounds.

LDLR, sequence (P01130 22-860): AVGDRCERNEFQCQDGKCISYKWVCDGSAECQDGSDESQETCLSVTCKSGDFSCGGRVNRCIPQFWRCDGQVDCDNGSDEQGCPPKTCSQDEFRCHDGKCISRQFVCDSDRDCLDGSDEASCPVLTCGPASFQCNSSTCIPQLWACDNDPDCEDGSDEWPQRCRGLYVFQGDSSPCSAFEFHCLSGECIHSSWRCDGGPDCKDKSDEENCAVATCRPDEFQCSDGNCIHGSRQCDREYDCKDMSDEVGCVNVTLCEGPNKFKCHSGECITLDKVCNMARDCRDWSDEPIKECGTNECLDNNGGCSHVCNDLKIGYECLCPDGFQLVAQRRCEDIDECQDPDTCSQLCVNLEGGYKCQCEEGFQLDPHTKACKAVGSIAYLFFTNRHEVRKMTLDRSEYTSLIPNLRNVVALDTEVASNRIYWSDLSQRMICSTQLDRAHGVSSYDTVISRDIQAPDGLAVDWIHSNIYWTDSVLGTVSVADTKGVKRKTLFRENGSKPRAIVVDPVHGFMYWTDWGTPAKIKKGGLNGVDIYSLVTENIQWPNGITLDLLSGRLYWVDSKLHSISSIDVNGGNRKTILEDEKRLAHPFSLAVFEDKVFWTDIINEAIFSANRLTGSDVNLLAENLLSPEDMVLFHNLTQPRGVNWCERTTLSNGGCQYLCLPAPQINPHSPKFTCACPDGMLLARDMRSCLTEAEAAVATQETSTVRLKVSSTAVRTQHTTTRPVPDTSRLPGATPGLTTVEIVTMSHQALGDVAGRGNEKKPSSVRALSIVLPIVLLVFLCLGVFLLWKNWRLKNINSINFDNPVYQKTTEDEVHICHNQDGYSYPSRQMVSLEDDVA

For the compound “T-161: variant of peptide T-087 (DAWERFRGLFKELADYFR)”, in the data set with ARPE-19 cells [1], the “cholesterol efflux following LXR agonist treatment” value is “increased cholesterol efflux”. For the same compound, the “activity in key assays of polypeptides homologous to T-087” value in data set [2] was “sustained or improved activity”.
Taken in the same sequence, the figures for “T-172: variant of peptide T-087 (DAWERFRALFKELADYFA)” were “increased cholesterol efflux” and “sustained or improved activity”.
In the case of “T-129: variant of peptide T-101 (RSGADALEAALKELKRFIREWT)”, the “cholesterol efflux in the presence of LXR agonist” value (“cholesterol efflux in the presence” below) in the data set on HMC3 cells is recorded as “greater cholesterol efflux”. Also, in data set [2], the “activity in key assays of polypeptides of the SEQ ID NO. 101 family” value (“activity … of the SEQ ID NO. 101 family” below) is “sustained or improved activity”.
Taken in the same sequence, the figures for “T-122: variant of peptide T-101 (RAGADALESALKELKRFIREWT)” were “greater cholesterol efflux” and “sustained or improved activity”.
Take `CC(C)C[C@H](NC(=O)[C@H](CCCNC(=N)N)NC(=O)[C@H](CC(=O)O)NC(=O)[C@H](Cc1ccc(O)cc1)NC(=O)[C@H](CC(C)C)NC(=O)[C@H](CCCCN)NC(=O)[C@H](CC(=O)O)NC(=O)CNC(=O)[C@H](CC(=O)O)NC(=O)[C@H](CCCNC(=N)N)NC(=O)[C@H](CC(C)C)NC(=O)[C@H](CC(C)C)NC(=O)[C@H](CCCNC(=N)N)NC(=O)[C@H](CCCCN)NC(=O)[C@H](CCCNC(=N)N)NC(=O)[C@H](CC(C)C)NC(=O)[C@H](CCCCN)NC(=O)[C@H](CCCNC(=N)N)NC(=O)[C@H](CC(C)C)NC(=O)[C@@H](N)Cc1c[nH]cn1)C(=O)N[C@@H](C)C(=O)N[C@@H](CCC(=O)O)C(=O)N[C@@H](Cc1ccc(O)cc1)C(=O)N[C@@H](Cc1ccc(O)cc1)C(=O)N[C@@H](C)C(=O)N[C@@H](CCCNC(=N)N)C(=O)N[C@@H](C)C(=O)N[C@@H](CCCCN)C(=O)N[C@@H](CCC(=O)O)C(=O)N[C@@H](C)C(=O)N[C@@H](Cc1ccccc1)C(=O)N[C@@H](CC(=O)O)C(=O)N[C@@H](CCCNC(=N)N)C(=O)O` [T-062] (H-HLRKLRKRLLRDGDKLYDRLAEYYARAKEAFDR-OH): in the data set with ARPE-19 cells [3], the ARPE-19 cell viability entry is “substantial change in viability”. Also, the Kd (in general, the free concentration of one partner at which half of the binding sites on the other are occupied at equilibrium, for simple one-to-one binding) at LDLR (setting [4]) is under 10 µM.
Regarding `CSCC[C@H](NC(=O)[C@H](CC(C)C)NC(=O)[C@H](CC(=O)O)NC(=O)[C@H](CCCCN)NC(=O)CNC(=O)[C@H](Cc1ccc(O)cc1)NC(=O)[C@H](CC(=O)O)NC(=O)[C@@H](NC(=O)[C@@H](NC(=O)[C@@H](NC(=O)[C@H](CCC(N)=O)NC(=O)[C@H](Cc1ccccc1)NC(=O)[C@H](Cc1ccc(O)cc1)NC(=O)[C@H](CCC(N)=O)NC(=O)[C@H](CO)NC(=O)[C@@H](NC(=O)[C@H](CC(C)C)NC(=O)[C@H](CO)NC(=O)[C@H](CCCNC(=N)N)NC(=O)[C@H](CC(C)C)NC(=O)[C@H](CC(C)C)NC(=O)[C@H](CCCNC(=N)N)NC(=O)[C@H](CCCCN)NC(=O)[C@H](CCCNC(=N)N)NC(=O)[C@H](CC(C)C)NC(=O)[C@H](CCCCN)NC(=O)[C@H](CCCNC(=N)N)NC(=O)[C@H](CC(C)C)NC(=O)[C@H](Cc1c[nH]cn1)NC(=O)[C@H](CO)NC(=O)[C@H](C)NC(=O)[C@@H](N)CC(C)C)C(C)C)[C@@H](C)O)C(C)C)[C@@H](C)O)C(=O)O` [T-065] (H-LASHLRKLRKRLLRSLVSQYFQTVTDYGKDLM-OH), in the data set with ARPE-19 cells [3], the ARPE-19 cell viability result is “substantial change in viability”. Also, the Kd at LDLR (setting [4]) was under 10 µM.
As for “T-152: variant of peptide T-087 (AAWERFRALFKELADYFR)”, the “cholesterol efflux following LXR agonist treatment” value in the data set with ARPE-19 cells [1] is listed as “increased cholesterol efflux”. Moreover, the “activity in key assays of polypeptides homologous to T-087” value in data set [2] was “sustained or improved activity”.
As to “VRGRLVQYRGEVQAMLGQSTEELRVRLASHLRKLRKRLLRDADDLQKRLAVYQA [T-069]”, the ARPE-19 cell viability entry with ARPE-19 cells [3] is reported as “substantial change in viability”. The compound also returned a Kd on LDLR of under 10 µM.
As to “T-136: variant of peptide T-101 (RSGADALESALKELKAFIREWT)”, the “cholesterol efflux in the presence” value in the data set on HMC3 cells was “greater cholesterol efflux”. The “activity … of the SEQ ID NO. 101 family” value in data set [2] is listed as “sustained or improved activity”.
As for `CC(C)C[C@H](NC(=O)[C@H](CC(=O)O)NC(=O)[C@H](CCCCN)NC(=O)CNC(=O)[C@H](Cc1ccc(O)cc1)NC(=O)[C@H](CC(=O)O)NC(=O)[C@@H](NC(=O)[C@@H](NC(=O)[C@@H](NC(=O)[C@H](CCC(N)=O)NC(=O)[C@H](CCCNC(=N)N)NC(=O)[C@H](Cc1ccc(O)cc1)NC(=O)[C@H](CCC(N)=O)NC(=O)[C@H](CO)NC(=O)[C@@H](NC(=O)[C@H](CC(C)C)NC(=O)[C@H](CO)NC(=O)[C@H](CCCNC(=N)N)NC(=O)[C@H](CC(C)C)NC(=O)[C@H](CC(C)C)NC(=O)[C@H](CCCNC(=N)N)NC(=O)[C@H](CCCCN)NC(=O)[C@H](CCCNC(=N)N)NC(=O)[C@H](CC(C)C)NC(=O)[C@H](CCCCN)NC(=O)[C@H](CCCNC(=N)N)NC(=O)[C@H](CC(C)C)NC(=O)[C@@H](N)Cc1c[nH]cn1)C(C)C)[C@@H](C)O)C(C)C)[C@@H](C)O)C(=O)O` [T-110] (H-HLRKLRKRLLRSLVSQYRQTVTDYGKDL-OH), the ARPE-19 cell viability entry with ARPE-19 cells [3] was “substantial change in viability”. Also, the Kd at LDLR (setting [4]) is under 10 µM.
For the compound “T-139: variant of peptide T-101 (RSGADALESALKELKRFIAEWT)”, the “cholesterol efflux in the presence” value in the data set on HMC3 cells was “greater cholesterol efflux”. In data set [2], the “activity … of the SEQ ID NO. 101 family” value was “sustained or improved activity”.
Regarding “T-160: variant of peptide T-087 (DAWERFRPLFKELADYFR)”, in the data set with ARPE-19 cells [1], the “cholesterol efflux following LXR agonist treatment” value is recorded as “increased cholesterol efflux”. The “activity in key assays of polypeptides homologous to T-087” value in data set [2] was “sustained or improved activity”.
“T-163: variant of peptide T-087 (DAWERFRALAKELADYFR)”: the “cholesterol efflux following LXR agonist treatment” value with ARPE-19 cells [1] was “increased cholesterol efflux”. For the same compound, the “activity in key assays of polypeptides homologous to T-087” value in data set [2] is on record as “sustained or improved activity”.
Take “T-123: variant of peptide T-101 (RSAADALESALKELKRFIREWT)”: the “cholesterol efflux in the presence” value in the data set on HMC3 cells is given as “greater cholesterol efflux”. In data set [2], the “activity … of the SEQ ID NO. 101 family” value is “sustained or improved activity”.
In the case of `CC(C)C[C@H](NC(=O)[C@H](C)NC(=O)[C@H](CCCNC(=N)N)NC(=O)[C@H](Cc1ccccc1)NC(=O)[C@H](CCC(=O)O)NC(=O)[C@H](CCCNC(=N)N)NC(=O)[C@@H](N)Cc1c[nH]c2ccccc12)C(=O)N[C@@H](Cc1ccccc1)C(=O)N[C@@H](CCCCN)C(=O)N[C@@H](CCC(=O)O)C(=O)N[C@@H](CC(C)C)C(=O)N[C@@H](C)C(=O)N[C@@H](CC(=O)O)C(=O)N[C@@H](Cc1ccc(O)cc1)C(=O)N[C@@H](Cc1ccccc1)C(=O)N[C@@H](CCCNC(=N)N)C(=O)N[C@@H](CC(=O)O)C(=O)N[C@@H](C)C(=O)O` [T-085] (H-WREFRALFKELADYFRDA-OH), the ARPE-19 cell viability entry with ARPE-19 cells [3] was “substantial change in viability”.
